Test results: publication PMC3669347, “A Multi-System Approach Assessing the Interaction of Anticonvulsants with P-gp” (PLoS ONE, 2013)
Like-named read-outs stand apart in the source and are kept apart here.

Columns and labels:
[1] = target: T1, P-gp (Homo sapiens, UniProt P08183); set-up: induced multi-drug resistance through over-expression of P-gp; endogenous in cells; host or cells: CEM (low P-gp) and VBL100 (vinblastine-selected, high P-gp) cells; settings: cited from earlier work
[2] = test system: human P-gp; settings: cited from earlier work; for Substrate of P-gp (published evidence): Transfected human P-gp cell lines, equilibrium
[3] = target: T2, P-gp (Sus scrofa, UniProt K7GMM7); experiment: Permeability assay in primary porcine brain endothelial cells (PBECs); type: in vitro ADME; settings: for Effect of verapamil or tariquidar treatment on apical to basolateral Papp: 6µM drug, 1 hour, 100µM verapamil, 300nM tariquidar; for Interaction with P-gp observed: Primary porcine brain endothelial
T2 sequence (K7GMM7 1-1248): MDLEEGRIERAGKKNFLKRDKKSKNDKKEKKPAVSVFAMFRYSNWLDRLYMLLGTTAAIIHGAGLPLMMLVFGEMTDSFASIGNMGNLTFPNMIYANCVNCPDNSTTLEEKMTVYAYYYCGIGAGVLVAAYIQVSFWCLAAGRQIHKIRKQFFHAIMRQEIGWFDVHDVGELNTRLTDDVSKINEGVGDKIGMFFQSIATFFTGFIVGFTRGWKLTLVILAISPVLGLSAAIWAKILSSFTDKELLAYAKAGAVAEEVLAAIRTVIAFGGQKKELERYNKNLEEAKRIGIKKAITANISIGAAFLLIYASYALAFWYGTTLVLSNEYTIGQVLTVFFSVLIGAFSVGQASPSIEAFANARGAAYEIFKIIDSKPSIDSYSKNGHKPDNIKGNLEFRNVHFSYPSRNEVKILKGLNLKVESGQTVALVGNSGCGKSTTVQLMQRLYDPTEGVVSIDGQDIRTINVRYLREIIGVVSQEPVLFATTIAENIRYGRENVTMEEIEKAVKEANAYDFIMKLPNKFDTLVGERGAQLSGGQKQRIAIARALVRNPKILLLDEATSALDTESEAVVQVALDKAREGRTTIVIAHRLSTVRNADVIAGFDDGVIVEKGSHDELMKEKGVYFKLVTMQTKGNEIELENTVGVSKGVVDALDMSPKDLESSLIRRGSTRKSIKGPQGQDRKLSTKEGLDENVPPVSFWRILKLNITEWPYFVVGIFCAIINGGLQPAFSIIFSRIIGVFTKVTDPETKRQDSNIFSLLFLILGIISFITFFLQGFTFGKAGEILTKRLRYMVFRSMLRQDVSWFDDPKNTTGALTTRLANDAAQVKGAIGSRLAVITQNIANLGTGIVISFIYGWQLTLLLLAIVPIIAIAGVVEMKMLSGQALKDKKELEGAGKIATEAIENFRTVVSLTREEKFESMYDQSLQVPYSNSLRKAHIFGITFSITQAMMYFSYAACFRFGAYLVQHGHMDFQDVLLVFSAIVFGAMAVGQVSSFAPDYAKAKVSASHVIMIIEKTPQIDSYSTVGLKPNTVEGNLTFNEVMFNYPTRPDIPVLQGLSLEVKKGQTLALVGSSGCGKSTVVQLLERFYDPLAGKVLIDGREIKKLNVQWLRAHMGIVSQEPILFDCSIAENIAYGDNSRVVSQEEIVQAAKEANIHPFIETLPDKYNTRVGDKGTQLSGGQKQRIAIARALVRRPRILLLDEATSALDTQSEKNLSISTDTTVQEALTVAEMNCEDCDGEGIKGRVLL
Description: The porcine brain microvessel isolation and culture protocol was based on previously published papers, [29]with modifications. Briefly, brains from six pigs (Cheale Meats Ltd., Brentwood, UK) were washed. The grey matter was homogenised, filtered, digested, centrifuged and microvessels cryopreserved.
The PBECs were seeded onto rat-tail collagen/fibronectin-coated transwell filter inserts at a density of 1×10^5cells/cm^2. […] This was conducted to elevate intracellular cAMP and thereby encourage differentiation of BBB phenotype including tight junctions. Cell monolayers were used when TEER exceeded 340 Ω.cm^2. For permeability assays, DMEM without phenol red with added HEPES (25mM) and 0.1% BSA was pH adjusted to 7.4 and used as transport medium. […] Samples were taken from both compartments.Apparent permeability (Papp) in cm/s for the compounds studied was calculated as previously described.

[4] = target: T1, P-gp; settings: for Effect of tariquidar on accumulation in hCMEC/D3 cells: 5µM drug, 30 minutes, 300nM tariquidar; for Interaction with P-gp observed: Human brain endothelial cell line (hCMEC/D3)
Description: Cells were equilibrated in transport buffer (HBSS containing 25mM HEPES and 0.1% (w/v) bovine serum albumin at pH 7.4) at 37°C with accumulation assays performed as previously described [24], [25].

[5] = target: T2, P-gp; set-up: method as in PMID 12954800; settings: porcine brain endothelial cells, cited from earlier work
[6] = test system: P-gp; settings: cited from earlier work; for Substrate of P-gp (published evidence): MDR1 KO Mouse; for Brain accumulation affected by rodent P-gp: MDR1 knockout mice
[7] = test system: mouse P-gp; settings: Transfected mouse P-gp cell line; bi-directional transwell method; cited from earlier work
[8] = test system: human P-gp; settings: Transfected human P-gp cell lines; bi-directional transwell; cited from earlier work
[9] = test system: P-gp; settings: Microdialysis/brain access in rodent models; cited from earlier work
[10] = test system: P-gp; settings: cited from earlier work
[11] = test system: P-gp; settings: cited from earlier work; remark: listed apart in the source
[12] = target: T1, P-gp; experiment: Cellular accumulation assay in CEM and VBL100 cells; settings: for Accumulation in VBL100 cells compared with CEM cells / Effect of tariquidar on accumulation in VBL100 cells: 5µM drug, 30 minutes; for Effect of tariquidar on accumulation in VBL100 cells: 300nM tariquidar; for Interaction with P-gp observed: CEM/VBL cells
[13] = target: T1, P-gp; experiment: Concentration equilibrium transport assay in Caco-2 cells; settings: for Polarised transport in Caco-2 concentration equilibrium assay: 5µM drug, 4 hour time course, ±300nM tariquidar; for Interaction with P-gp observed: Caco-2 (equilibrium method)
[14] = target: T1, P-gp; experiment: Concentration equilibrium transport assay in MDCKII±P-gp cells; settings: for Transport into the apical compartment, MDCKII-P-gp vs parental MDCKII cells: 5µM drug, 6 hour time course, ±300nM tariquidar; for Interaction with P-gp observed: MDCK±P-gp (equilibrium method)
[15] = target: T1, P-gp; experiment: Concentration equilibrium transport assay in LLC-PK1±P-gp cells; settings: for Transport into the apical compartment, LLC-PK1-P-gp vs parental LLC-PK1 cells: 5µM drug, 6 hour time course, ±300nM tariquidar; for Interaction with P-gp observed: LLC-PK1±P-gp (equilibrium method)
[16] = target: T1, P-gp; experiment: X. laevis oocyte P-gp drug transport assay (efflux and accumulation); settings: for Accumulation in oocytes expressing human P-gp vs water-injected oocytes: 20µM drug ±40µM PSC833, 1 hour; for Accumulation in oocytes expressing human P-gp vs water-injected oocytes / Efflux from P-gp injected oocytes vs water-injected oocytes: 22°C; for Interaction with P-gp observed: Xenopus laevis oocytes expressing human P-gp; for Efflux from P-gp injected oocytes vs water-injected oocytes: intra-oocyte 1µM digoxin or 5µM phenytoin, 45 minutes
[17] = target: T1, P-gp; set-up: induced multi-drug resistance through over-expression of P-gp; endogenous in cells; host or cells: CEM (low P-gp) and VBL100 (vinblastine-selected, high P-gp) cells; method as in PMID 11318771, PMID 16882549; settings: Caco-2 bi-directional transwell; cited from earlier work
[18] = target: T1, P-gp; set-up: induced multi-drug resistance through over-expression of P-gp; endogenous in cells; host or cells: CEM (low P-gp) and VBL100 (vinblastine-selected, high P-gp) cells; method as in PMID 12954800; settings: LLC-PK1-P-gp cells, 100µM drug; cited from earlier work
[19] = target: T1, P-gp; set-up: induced multi-drug resistance through over-expression of P-gp; endogenous in cells; host or cells: CEM (low P-gp) and VBL100 (vinblastine-selected, high P-gp) cells; method as in PMID 17326793; settings: Primary human brain endothelial cells; cited from earlier work
[20] = target: T1, P-gp; set-up: induced multi-drug resistance through over-expression of P-gp; endogenous in cells; host or cells: CEM (low P-gp) and VBL100 (vinblastine-selected, high P-gp) cells; method as in PMID 17326793; settings: Primary epileptic derived human brain endothelial cells; cited from earlier work

T1 sequence (P08183 whole entry): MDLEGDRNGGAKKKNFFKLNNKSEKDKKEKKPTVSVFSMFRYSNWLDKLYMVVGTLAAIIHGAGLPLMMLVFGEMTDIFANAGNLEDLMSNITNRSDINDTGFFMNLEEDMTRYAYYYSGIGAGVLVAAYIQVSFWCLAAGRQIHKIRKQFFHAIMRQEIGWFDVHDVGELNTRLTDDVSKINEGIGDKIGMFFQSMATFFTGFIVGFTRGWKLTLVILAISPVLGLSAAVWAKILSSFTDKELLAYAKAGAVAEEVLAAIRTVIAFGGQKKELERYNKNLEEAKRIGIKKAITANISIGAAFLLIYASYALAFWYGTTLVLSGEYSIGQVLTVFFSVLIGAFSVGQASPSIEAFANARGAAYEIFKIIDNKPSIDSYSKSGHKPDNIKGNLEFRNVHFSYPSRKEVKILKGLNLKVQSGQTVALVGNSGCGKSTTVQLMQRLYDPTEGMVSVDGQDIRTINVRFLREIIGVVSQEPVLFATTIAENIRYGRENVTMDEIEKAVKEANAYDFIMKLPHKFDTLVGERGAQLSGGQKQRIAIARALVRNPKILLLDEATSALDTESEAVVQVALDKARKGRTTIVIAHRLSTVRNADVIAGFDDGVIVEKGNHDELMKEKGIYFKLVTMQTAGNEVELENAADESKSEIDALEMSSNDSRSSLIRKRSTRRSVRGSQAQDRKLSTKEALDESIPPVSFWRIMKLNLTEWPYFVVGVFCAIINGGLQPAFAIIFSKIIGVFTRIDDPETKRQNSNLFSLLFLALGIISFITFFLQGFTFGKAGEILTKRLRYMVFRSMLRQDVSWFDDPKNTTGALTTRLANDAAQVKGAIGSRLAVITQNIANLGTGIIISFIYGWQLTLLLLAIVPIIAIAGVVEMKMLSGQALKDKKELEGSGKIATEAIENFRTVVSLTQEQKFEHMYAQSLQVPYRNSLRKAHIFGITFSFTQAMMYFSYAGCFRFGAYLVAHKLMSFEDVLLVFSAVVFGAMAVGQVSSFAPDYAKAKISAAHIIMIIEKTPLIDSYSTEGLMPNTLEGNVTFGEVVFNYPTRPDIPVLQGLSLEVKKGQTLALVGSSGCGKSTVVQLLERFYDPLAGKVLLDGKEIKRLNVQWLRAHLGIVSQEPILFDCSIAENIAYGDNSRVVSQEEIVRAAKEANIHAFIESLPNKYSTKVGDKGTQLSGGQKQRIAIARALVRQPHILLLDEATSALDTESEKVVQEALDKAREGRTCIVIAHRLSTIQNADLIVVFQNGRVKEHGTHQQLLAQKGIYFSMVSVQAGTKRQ

CC1(C)CCC(c2ccc(Cl)cc2)=C(CN2CCN(c3ccc(C(=O)NS(=O)(=O)c4ccc(N[C@H](CCN5CCOCC5)CSc5ccccc5)c(S(=O)(=O)C(F)(F)F)c4)cc3)CC2)C1 [ABT-263]
Identified as P-gp substrate with CEM and VBL100 cells [1]: P-gp substrates

NC(=O)N1c2ccccc2C2OC2c2ccccc21 (centres unmarked) [carbamazepine-10,11-epoxide]
Transport by P-gp, concentration equilibrium approach [2]: does transport

NC(=O)N1c2ccccc2C=Cc2ccccc21 [carbamazepine]
Effect of verapamil or tariquidar treatment on apical to basolateral Papp [3]: decrease | Interaction with P-gp observed [3]: No | Effect of tariquidar on accumulation in hCMEC/D3 cells [4]: No effect of tariquidar | Interaction with P-gp observed [4]: No | Inhibition of uptake of calcein AM ([5]; 10µM): not at 10µM | Inhibition of uptake of calcein AM ([5]; 100µM): able to inhibit | Substrate of P-gp (published evidence) [6]: No | Brain accumulation affected by rodent P-gp [6]: not | Substrate of P-gp (published evidence) [7]: No | Substrate of P-gp (published evidence) [8]: No | Substrate of P-gp (published evidence) [2]: No | Transport by P-gp, concentration equilibrium approach [2]: does not transport | Substrate of P-gp (published evidence) [9]: Yes | Stimulation of P-gp ATPase activity (published evidence) [10]: No | Calcein-AM P-gp inhibition assay (published evidence) [11]: No | Accumulation in VBL100 cells compared with CEM cells [12]: significantly higher accumulation | Effect of tariquidar on accumulation in VBL100 cells [12]: not inhibited by tariquidar | Interaction with P-gp observed [12]: No | Polarised transport in Caco-2 concentration equilibrium assay [13]: No polarised transport | Interaction with P-gp observed [13]: No | Transport into the apical compartment, MDCKII-P-gp vs parental MDCKII cells [14]: no difference | Interaction with P-gp observed [14]: No | Transport into the apical compartment, LLC-PK1-P-gp vs parental LLC-PK1 cells [15]: no transport | Interaction with P-gp observed [15]: No | Accumulation in oocytes expressing human P-gp vs water-injected oocytes [16]: No differences | Interaction with P-gp observed [16]: No | Substrate of P-gp (published evidence) [17]: No | Inhibition of the uptake of the P-gp substrate [18]: no inhibition

C[C@H]1O[C@@H](O[C@H]2[C@@H](O)C[C@H](O[C@H]3[C@@H](O)C[C@H](O[C@H]4CC[C@@]5(C)[C@H](CC[C@@H]6[C@@H]5C[C@@H](O)[C@]5(C)[C@@H](C7=CC(=O)OC7)CC[C@]65O)C4)O[C@@H]3C)O[C@@H]2C)C[C@H](O)[C@@H]1O [digoxin]
Accumulation in VBL100 cells compared with CEM cells [12]: less accumulation | Effect of tariquidar on accumulation in VBL100 cells [12]: tariquidar restored accumulation | Polarised transport in Caco-2 concentration equilibrium assay [13]: transported into the apical compartment and this was inhibited by tariquidar | Transport into the apical compartment, MDCKII-P-gp vs parental MDCKII cells [14]: significant increase in apical concentration | Transport into the apical compartment, LLC-PK1-P-gp vs parental LLC-PK1 cells [15]: significantly higher transport | P-gp substrate status in oocyte expression system ([16]; imatinib data not shown): confirmed to be substrates | Efflux from P-gp injected oocytes vs water-injected oocytes [16]: higher efflux | Effect of PSC-833 on efflux from P-gp injected oocytes ([16]; intra-oocyte 1µM digoxin, 40µM PSC833): reduced

Cc1ccc(NC(=O)c2ccc(CN3CCN(C)CC3)cc2)cc1Nc1nccc(-c2cccnc2)n1 [imatinib]
Identified as P-gp substrate with CEM and VBL100 cells [1]: P-gp substrates

Nc1nnc(-c2cccc(Cl)c2Cl)c(N)n1 [lamotrigine]
Brain accumulation affected by rodent P-gp [6]: not | Inhibition by tariquidar of P-gp mediated transport ([2]; LLC-PK1-P-gp, concentration equilibrium approach, ref 18 (Luna-Tortos et al)): 60%

O=C1NC(=O)C(c2ccccc2)(c2ccccc2)N1 [phenytoin]
Effect of verapamil or tariquidar treatment on apical to basolateral Papp [3]: not affected | Interaction with P-gp observed [3]: No | Effect of tariquidar on accumulation in hCMEC/D3 cells [4]: No effect of tariquidar | Interaction with P-gp observed [4]: No | Substrate of P-gp (published evidence) [6]: Yes/No | Brain accumulation affected by rodent P-gp [6]: affects brain accumulation | Substrate of P-gp (published evidence) [7]: Yes/No | Substrate of P-gp (published evidence) [8]: No | Substrate of P-gp (published evidence) [2]: Yes | Substrate of P-gp (published evidence) [9]: Yes | Stimulation of P-gp ATPase activity (published evidence) [10]: No | Calcein-AM P-gp inhibition assay (published evidence) [11]: No | Accumulation in VBL100 cells compared with CEM cells [12]: No significant decrease in accumulation or tariquidar inhibition | Interaction with P-gp observed [12]: No | Polarised transport in Caco-2 concentration equilibrium assay [13]: No polarised transport | Interaction with P-gp observed [13]: No | Transport into the apical compartment, MDCKII-P-gp vs parental MDCKII cells [14]: more phenytoin was transported into the apical compartment | Interaction with P-gp observed [14]: Yes –“weak” | Transport into the apical compartment, LLC-PK1-P-gp vs parental LLC-PK1 cells [15]: higher in LLC-PK1-P-gp cells and inhibitable by tariquidar | Interaction with P-gp observed [15]: Yes –“weak” | Accumulation in oocytes expressing human P-gp vs water-injected oocytes [16]: No differences | Interaction with P-gp observed [16]: No | Efflux from P-gp injected oocytes vs water-injected oocytes [16]: No difference | Substrate of P-gp (published evidence) [17]: No | Substrate of P-gp (published evidence) [19]: No | Substrate of P-gp (published evidence) [20]: Yes | Inhibition of the uptake of the P-gp substrate [18]: no inhibition
